Like-named read-outs stand apart in the source and are kept apart here.
Target: human CNR2 receptors (CB2 receptor) (Homo sapiens (Human), UniProt P34972)
Assay: Radioligand binding assay, human CB2 (CNR2)
Procedure: Radioligand Binding Assay
The affinity of the compounds of the invention for cannabinoid CB1 receptors was determined using recommended amounts of membrane preparations (PerkinElmer) of human embryonic kidney (HEK) cells expressing the human CNR1 or CNR2 receptors in conjunction with 1.5 or 2.6 nM [3H]-CP-55,940 (Perkin Elmer) as radioligand, respectively. Binding was performed in binding buffer (50 mM Tris, 5 mM MgCl2, 2.5 mM EDTA, and 0.5% (wt/vol) fatty acid free BSA, pH 7.4 for CB1 receptor and 50 mM Tris, 5 mM MgCl2, 2.5 mM EGTA, and 0.1% (wt/vol) fatty acid free BSA, pH 7.4 for CB2 receptor) in a total volume of 0.2 ml for 1 h at 30° C. shaking. The reaction was terminated by rapid filtration through microfiltration plates coated with 0.5% polyethylenimine (UniFilter GFB filter plate; Packard). Bound radioactivity was analyzed for Ki using nonlinear regression analysis (Activity Base, ID Business Solution, Limited), with the Kd values for [3H]CP55,940 determined from saturation experiments. The compounds of formula (I) show an excellent affinity for the CB2 receptor.
The compounds according to formula (I) have an activity in the above assay (Ki) between 0.5 nM and 10 μM. Particular compounds of formula (I) have an activity in the above assay (Ki) between 0.5 nM and 3 μM. Other particular compounds of formula (I) have an activity in the above assay (Ki) between 0.5 nM and 100 nM.

[1] = membranes of HEK cells expressing human CNR2, 2.6 nM [3H]-CP-55,940 radioligand, read-out: Binding assay human CB2 Ki

Sequence of human CNR2 receptors (CB2 receptor) (P34972 whole entry): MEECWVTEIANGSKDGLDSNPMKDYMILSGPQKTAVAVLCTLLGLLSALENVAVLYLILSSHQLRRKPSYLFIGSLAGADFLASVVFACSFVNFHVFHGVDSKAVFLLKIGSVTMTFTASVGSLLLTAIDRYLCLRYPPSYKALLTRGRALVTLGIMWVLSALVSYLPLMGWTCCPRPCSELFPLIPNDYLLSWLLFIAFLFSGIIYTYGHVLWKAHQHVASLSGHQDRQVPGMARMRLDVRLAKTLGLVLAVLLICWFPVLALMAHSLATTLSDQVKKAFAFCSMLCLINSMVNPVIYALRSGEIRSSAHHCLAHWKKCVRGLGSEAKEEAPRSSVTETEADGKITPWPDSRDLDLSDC

Ki [1] [nM] | Compound | Ki [nM]
0.2 | CCOC(=O)C(CC)(CC)NC(=O)c1ccc(N2CC(OC)C2)c(OC[C@H]2C[C@@H]2COCF)n1 (stereo in doubt) [Example 9, (+)-trans-Ethyl 2-ethyl-2-{[6-({-2-[(fluoromethoxy)methyl]cyclopropyl}methoxy)-5-(3-methoxyazetidin-1-yl)pyridine-2-carbonyl]amino}butanoate] | –
0.7 | CCC(CC)(NC(=O)c1ccc(N2CC(OC)C2)c(OC[C@H]2C[C@@H]2CO)n1)C(=O)OCCCF [Example 15, 3-Fluoropropyl 2-ethyl-2-{[6-{[(1S,2S)-2-(hydroxymethyl)cyclopropyl]methoxy}-5-(3-methoxyazetidin-1-yl)pyridine-2-carbonyl]amino}butanoate] | –
4.6 | CCOC(=O)C(CC)(CC)NC(=O)c1ccc(N2CC(OC)C2)c(OC[C@@H]2C[C@@H]2COCF)n1 (mixture of isomers) [Example 5, Ethyl 2-ethyl-2-{[6-({(1R,2S)-2-[(fluoromethoxy)methyl]cyclopropyl}methoxy)-5-(3-methoxyazetidin-1-yl)pyridine-2-carbonyl]amino}butanoate and ethyl 2-ethyl-2-{[6-({(1S,2R)-2-[(fluoromethoxy)methyl]cyclopropyl}methoxy)-5-(3-methoxyazetidin-1-yl)pyridine-2-carbonyl]amino}butanoate] | –
18.8 | CCC(CC)(NC(=O)c1ccc(N2CC(OC)C2)c(OC[C@@H]2C[C@H]2CO)n1)C(=O)OCCCF [Example 16, 3-Fluoropropyl 2-ethyl-2-{[6-{[(1R,2R)-2-(hydroxymethyl)cyclopropyl]methoxy}-5-(3-methoxyazetidin-1-yl)pyridine-2-carbonyl]amino}butanoate] | –
0.5 | CCOC(=O)C(CC)(CC)NC(=O)c1ccc(N2CC(OC)C2)c(OC[C@H]2C[C@@H]2CF)n1 (mixture of isomers) [Example 3, Ethyl 2-ethyl-2-{[6-{[(1S,2S)-2-(fluoromethyl)cyclopropyl]methoxy}-5-(3-methoxyazetidin-1-yl)pyridine-2-carbonyl]amino}butanoate and ethyl 2-ethyl-2-{[6-{[(1R,R)-2-(fluoromethyl)cyclopropyl]methoxy}-5-(3-methoxyazetidin-1-yl)pyridine-2-carbonyl]amino}butanoate] | –
13 | CCOC(=O)C(CC)(CC)NC(=O)c1ccc(N2CC(OC)C2)c(OC[C@@H]2C[C@@H]2COCCF)n1 (mixture of isomers) [Example 6, Ethyl 2-ethyl-2-{[6-({(1R,2S)-2-[(2-fluoroethoxy)methyl]cyclopropyl}methoxy)-5-(3-methoxyazetidin-1-yl)pyridine-2-carbonyl]amino}butanoate and ethyl 2-ethyl-2-{[6-({(1S,2R)-2-[(2-fluoroethoxy)methyl]cyclopropyl}methoxy)-5-(3-methoxyazetidin-1-yl)pyridine-2-carbonyl]amino}butanoate] | –
8.2 | CCOC(=O)C(CC)(CC)NC(=O)c1ccc(N2CC(OC)C2)c(OC[C@@H]2C[C@H]2COCF)n1 [Example 10, (−)-trans-Ethyl 2-ethyl-2-{[6-({-2-[(fluoromethoxy)methyl]cyclopropyl}methoxy)-5-(3-methoxyazetidin-1-yl)pyridine-2-carbonyl]amino}butanoate] | –

Further lines, the compound ahead of its results:

Compound | Ki [1] [nM] | Ki [nM]
CCC(CC)(NC(=O)c1ccc(N2CC(O)C2)c(OC[C@H]2C[C@@H]2COCc2ccccc2)n1)C(=O)OCCCF (racemic) [Example 22, (Rac)-trans-3-Fluoropropyl 2-[[6-[[-2-(benzyloxymethyl)cyclopropyl]methoxy]-5-(3-hydroxyazetidin-1-yl)pyridine-2-carbonyl]amino]-2-ethyl-butanoate] | – | 755
CCC(CC)(NC(=O)c1ccc(N2CCCC2)c(OCC2(CO)COC2)n1)C(=O)OCCCF [Example 35, 3-Fluoropropyl 2-ethyl-2-(6-((3-(hydroxymethyl)oxetan-3-yl)methoxy)-5-(pyrrolidin-1-yl)picolinamido)butanoate] | 1390 | –
CCC(CC)(NC(=O)c1ccc(N2CC(F)C2)c(OC[C@@H]2C[C@H]2CO)n1)C(=O)OCCCF (single isomer, unassigned) [Example 29, 3-Fluoropropyl 2-ethyl-2-{[5-(3-fluoroazetidin-1-yl)-6-{[(1R,2R)-2-(hydroxymethyl)cyclopropyl]methoxy}pyridin-2-yl]formamido}butanoate or 3-fluoropropyl 2-ethyl-2-{[5-(3-fluoroazetidin-1-yl)-6-{[(1S,2S)-2-(hydroxymethyl)cyclopropyl]methoxy}pyridin-2-yl]formamido}butanoate] | 10.9 | –
CCC(CC)(NC(=O)c1ccc(N2CC(OC)C2)c(OC[C@H]2C[C@@H]2CO)n1)C(=O)OCCF (stereo in doubt) [Example 13, (+)-trans-2-Fluoroethyl 2-ethyl-2-{[6-{[-2-(hydroxymethyl)cyclopropyl]methoxy}-5-(3-methoxyazetidin-1-yl)pyridine-2-carbonyl]amino}butanoate] | 0.3 | –
CCC(CC)(NC(=O)c1ccc(N2CC(OC)C2)c(OC[C@H]2C[C@@H]2CO)n1)C(=O)OCF (stereo in doubt) [Example 12, (+)-trans-Fluoromethyl 2-ethyl-2-{[6-{[-2-(hydroxymethyl)cyclopropyl]methoxy}-5-(3-methoxyazetidin-1-yl)pyridine-2-carbonyl]amino}butanoate] | – | 0.4
CCC(CC)(NC(=O)c1ccc(N2CC(OS(=O)(=O)c3ccc(C)cc3)C2)c(OC[C@H]2C[C@@H]2CO)n1)C(=O)OCCCF (racemic) [Example 31, (Rac)-trans-3-fluoropropyl 2-ethyl-2-[[6-[[-2-(hydroxymethyl)cyclopropyl]methoxy]-5-[3-(p-tolylsulfonyloxy)azetidin-1-yl]pyridine-2-carbonyl]amino]butanoate] | – | 11.7
C=CC(C=C)(NC(=O)c1ccc(N2CC(OC)C2)c(OC[C@H]2C[C@@H]2CO)n1)C(=O)OCCCF [Example 20, 3-Fluoropropyl 2-[6-[[(1S,2S)-2-(hydroxymethyl)cyclopropyl]methoxy]-5-(3-methoxyazetidin-1-yl)pyridine-2-carbonylamino]-2-vinyl-but-3-enoate] | 525 | –
CCC(CC)(NC(=O)c1ccc(N2CC(F)C2)c(OC[C@H]2C[C@@H]2CO)n1)C(=O)N[C@H](CO)CC(C)C (single isomer, unassigned) [Example 28, N-[1-Ethyl-1-[[(1S)-1-(hydroxymethyl)-3-methyl-butyl]carbamoyl]propyl]-5-(3-fluoroazetidin-1-yl)-6-[[(1S,2S)-2-(hydroxymethyl)cyclopropyl]methoxy]pyridine-2-carboxamide or N-[1-ethyl-1-[[(1S)-1-(hydroxymethyl)-3-methyl-butyl]carbamoyl]propyl]-5-(3-fluoroazetidin-1-yl)-6-[[(1R,2R)-2-(hydroxymethyl)cyclopropyl]methoxy]pyridine-2-carboxamide] | 3940 | –
CCC(CC)(NC(=O)c1ccc(N2CCCC2)c(OCC2(CO)COC2)n1)C(=O)OCF [Example 33, Fluoromethyl 2-ethyl-2-[[6-[[3-(hydroxymethyl)oxetan-3-yl]methoxy]-5-pyrrolidin-1-yl-pyridine-2-carbonyl]amino]butanoate] | 348 | –
CCOC(=O)C(CC)(CC)NC(=O)c1ccc(N2CC(OC)C2)c(OCC(C)(C)COCF)n1 [Example 8, Ethyl 2-ethyl-2-({6-[3-(fluoromethoxy)-2,2-dimethylpropoxy]-5-(3-methoxyazetidin-1-yl)pyridine-2-carbonyl}amino)butanoate] | 143 | –
CCC(CC)(NC(=O)c1ccc(N2CC(F)C2)c(OC[C@H]2C[C@@H]2CO)n1)C(=O)OCCCF (single isomer, unassigned) [Example 30, 3-Fluoropropyl 2-ethyl-2-{[5-(3-fluoroazetidin-1-yl)-6-{[(1S,2S)-2-(hydroxymethyl)cyclopropyl]methoxy}pyridin-2-yl]formamido}butanoate or 3-fluoropropyl 2-ethyl-2-{[5-(3-fluoroazetidin-1-yl)-6-{[(1R,2R)-2-(hydroxymethyl)cyclopropyl]methoxy}pyridin-2-yl]formamido}butanoate] | 1.7 | –
CCC(CC)(NC(=O)c1ccc(N2CC(F)C2)c(OC[C@@H]2C[C@H]2CO)n1)C(=O)N[C@H](CO)CC(C)C (single isomer, unassigned) [Example 27, N-[1-Ethyl-1-[[(1S)-1-(hydroxymethyl)-3-methyl-butyl]carbamoyl]propyl]-5-(3-fluoroazetidin-1-yl)-6-[[(1R,2R)-2-(hydroxymethyl)cyclopropyl]methoxy]pyridine-2-carboxamide or N-[1-ethyl-1-[[(1S)-1-(hydroxymethyl)-3-methyl-butyl]carbamoyl]propyl]-5-(3-fluoroazetidin-1-yl)-6-[[(1S,2S)-2-(hydroxymethyl)cyclopropyl]methoxy]pyridine-2-carboxamide] | 4150 | –
[2H]C([2H])(OC(=O)C(CC)(CC)NC(=O)c1ccc(N2CC(OC)C2)c(OC[C@H]2C[C@@H]2CO)n1)C([2H])([2H])C([2H])([2H])OS(=O)(=O)c1ccc(C)cc1 [Example 24, [1,1,2,2,3,3-Hexadeuterio-3-(p-tolylsulfonyloxy)propyl] 2-ethyl-2-[[6-[[(1S,2S)-2-(hydroxymethyl)cyclopropyl]methoxy]-5-(3-methoxyazetidin-1-yl)pyridine-2-carbonyl]amino]butanoate] | 65.5 | –

From US11655243B2, “Pyridine and pyrazine derivatives as preferential cannabinoid 2 agonists” (HOFFMANN-LA ROCHE INC., priority 2018, dated 2023)
